Measurements as given in paper PMC9484092, “Three novel leaderless bacteriocins have antimicrobial activity against gram-positive bacteria to serve as promising food biopreservative” (Microbial Cell Factories, 2022).
No end group written: not given here. *: point of attachment. For = O=C*

Columns and labels:
[1] = tested on: Bacillus thuringiensis P86; test: MIC, agar well diffusion; type: cell-based; conditions: Bacillus thuringiensis P86 (thucin A1 producer strain), LB, lowest concentration forming a clear zone, highest concentration 60 μM
Description: (§1) Antibacterial activity against various indicator strains were determined by the agar well diffusion method. Briefly, each of the indicator strains (10^6 CFU/mL) was spread on a LB agar plate (45 °C) with wells (diameter = 6 mm). Then, 50 μL bacteriocin solution was added to the wells. The plate was kept at 4 °C for 2 h and subsequently incubated at a temperature suitable for the growth of the indicator strains for 12 h, followed by the measurement of inhibition zone to assess the antimicrobial activity.
(§2) The minimum inhibitory concentrations (MICs) of the bacteriocins against various indicator strains were determined by a previously described method. Briefly, the antimicrobial activities of different final concentrations bacteriocin solutions were measured by the agar well diffusion method described above. The MIC was defined at the lowest concentration of samples that could form a clear zone of inhibition.

[2] = tested on: Bacillus cereus ATCC 14579; type: cell-based; conditions: ATCC 14579, 12 h
Description: as §1, §2

Bacillus cereus UW85 = type: cell-based; conditions: UW85, 2 h
Description: as §1, §2

Bacillus firmus DS-1 = type: cell-based; conditions: 2 h
Description: as §1, §2

Bacillus pumilus SCG1 = type: cell-based; conditions: 2 h
Description: as §1, §2

Bacillus siamensis HCX05 = type: cell-based; conditions: 2 h
Description: as §1, §2

Bacillus simplex SYY08 = type: cell-based; conditions: 2 h
Description: as §1, §2

Bacillus subtilis 168 = type: cell-based; conditions: 168, 2 h
Description: as §1, §2

Bacillus subtilis Bsn5 = type: cell-based; conditions: Bsn5, 2 h
Description: as §1, §2

[3] = tested on: Bacillus thuringiensis BMB171; type: cell-based; conditions: 2 h
Description: as §1, §2

[4] = tested on: Glutamicibacter arilaitensis HCX33; type: cell-based; conditions: 2 h
Description: as §1, §2

[5] = tested on: Listeria monocytogenes LM201; type: cell-based; conditions: LM201, 2 h
Description: as §1, §2

[6] = tested on: Listeria monocytogenes LM605; type: cell-based; conditions: LM605, 2 h
Description: as §1, §2

[7] = tested on: Lysinibacillus fusiformis ZZY15-1; type: cell-based; conditions: 2 h
Description: as §1, §2

Rhodococcus sp. ZCH08 = type: cell-based; conditions: 2 h
Description: as §1, §2

[8] = tested on: Staphylococcus aureus ATCC 43300; type: cell-based; conditions: ATCC 43300, 2 h
Description: as §1, §2

[9] = tested on: Staphylococcus succinus SYY04; type: cell-based; conditions: 2 h
Description: as §1, §2

proteinase K = proteinase K (Parengyodontium album, UniProt P06873); test: Protease stability, residual antimicrobial activity; type: in vitro ADME; conditions: 4× MIC mixed 1:1 (v/v) with proteinase K 1 mg/mL (≥ 40 U/mg), 37 °C, 2 h; agar well diffusion, B. cereus ATCC 14579; triplicate
Chain of proteinase K (P06873 106-384): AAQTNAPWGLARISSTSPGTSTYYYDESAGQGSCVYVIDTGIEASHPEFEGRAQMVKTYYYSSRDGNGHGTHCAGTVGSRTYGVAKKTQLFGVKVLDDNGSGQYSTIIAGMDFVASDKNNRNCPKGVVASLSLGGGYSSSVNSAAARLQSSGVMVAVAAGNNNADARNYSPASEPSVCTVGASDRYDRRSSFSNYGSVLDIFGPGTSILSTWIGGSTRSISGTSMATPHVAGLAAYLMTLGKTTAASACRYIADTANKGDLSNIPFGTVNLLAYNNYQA
Description: as §1
Nisin A was commercial nisin A (Sigma-Aldrich, Shanghai, China) purified by HPLC as described above. The purity of nisin A and thucin A1 was all greater than 95% based on the ratio of absorption peak area at 210 nm. The stability assay was performed by previously described method with some modifications. To compare the pH stability of thucin A1 and nisin A, the bacteriocin solutions (1× , 2× , 4× , 8× MIC) were adjusted to pH 2.0, 3.0, 4.0, 5.0, 6.0, 7.0, 8.0, 9.0, 10.0, 11.0 and 12.0 with 0.5 M NaOH or 0.5 M HCl solution, followed by incubation at 37 °C for 4 h. The residual antimicrobial activity was tested after neutralizing the sample to pH 6.0. […] The indicator strain used in this experiment was B. cereus ATCC 14579 and the antimicrobial activity was determined with the agar well diffusion method as described above. […]

Question: What does the source list for “For-MIAFLRIVAQLGARAARWAWANKDRVLGWIRDGMAIDWIINKINDMVS [Thucin A1]”?
Answer: MIC [1]: 7.5 µM; MIC [2]: 1.88 µM; MIC (Bacillus cereus UW85): 1.88 µM; MIC (Bacillus firmus DS-1): 3.75 µM; MIC (Bacillus pumilus SCG1): 3.75 µM; MIC (Bacillus siamensis HCX05): 3.75 µM; MIC (Bacillus simplex SYY08): 1.88 µM; MIC (Bacillus subtilis 168): 3.75 µM; MIC (Bacillus subtilis Bsn5): 3.75 µM; MIC [3]: 1.88 µM; MIC [4]: 7.5 µM; MIC [5]: 0.47 µM; MIC [6]: 0.47 µM; MIC [7]: 7.5 µM; MIC (Rhodococcus sp. ZCH08): 15 µM; MIC [8]: 15 µM; MIC [9]: 15 µM; residual antimicrobial activity after digestion with proteinase K (proteinase K): completely lost its antimicrobial activity
